Experimental data as given in US20070049564A1 (Wyeth, priority 2005, published 2007).
≈ marks a conversion by molar mass, not a printed value. Where two headings read alike, the source gives them in different places.

Tests used:
E. coli = experiment: Range of MIC for E. coli strains; details: Escherichia coli
S. aureus GC 6335 = experiment: MIC, broth microdilution; details: Staphylococcus aureus
E. coli GC 2233 = experiment: MIC, broth microdilution; details: Escherichia coli
E. coli GC 2203 = experiment: MIC, broth microdilution; details: Escherichia coli
E. coli GC 2271 = experiment: MIC, broth microdilution; details: Escherichia coli
S. pyogenes GC 4563 = experiment: MIC, broth microdilution; details: Streptococcus pyogenes
S. aureus GC 2216 = experiment: MIC, broth microdilution; details: Staphylococcus aureus
E. coli GC 2231 = experiment: MIC, broth microdilution; details: Escherichia coli
E. faecalis GC 2265 = experiment: MIC, broth microdilution; details: Enterococcus faecalis
Staph. = experiment: Range of MIC for Staph. strains, including MRSA; details: Staphylococcus aureus
E. faecium GC 2243 = experiment: MIC, broth microdilution; details: Enterococcus faecium
P. aeruginosa GC 2214 = experiment: MIC, broth microdilution; details: Pseudomonas aeruginosa
E. coli GC 2232 = experiment: MIC, broth microdilution; details: Escherichia coli
E. faecium GC 4556 = experiment: MIC, broth microdilution; details: Enterococcus faecium
E. coli GC 2270 = experiment: MIC, broth microdilution; details: Escherichia coli
E. coli GC 2234 = experiment: MIC, broth microdilution; details: Escherichia coli
E. coli GC 2236 = experiment: MIC, broth microdilution; details: Escherichia coli
S. aureus GC 6469 = experiment: MIC, broth microdilution; details: Staphylococcus aureus
E. coli GC 3226 = experiment: MIC, broth microdilution; details: Escherichia coli
S. aureus GC 6466 = experiment: MIC, broth microdilution; details: Staphylococcus aureus

- MIC (E. coli; 20 h, read-out: Range of MIC, E. coli (Mouse Serum)): > 64 µg/mL
- MIC (E. coli; read-out: Minimum inhibitory concentration (MIC), E. coli (Human Serum)): > 64 µg/mL
- MIC (E. coli; read-out: Minimum inhibitory concentration (MIC), E. coli (water)): > 64 µg/mL
- MIC (E. coli; read-out: Range of MIC, E. coli (Water)): > 64 µg/mL
- MIC (S. aureus GC 6335; GC6335, read-out: MINIMAL INHIBITORY CONCENTRATION MIC, Human Serum): 4 µg/mL (≈ 5.83 µM)
- MIC (S. aureus GC 6335; GC6335, read-out: MINIMAL INHIBITORY CONCENTRATION MIC, Mouse Serum): 4 µg/mL (≈ 5.83 µM)
- MIC (S. aureus GC 6335; GC6335, read-out: MINIMAL INHIBITORY CONCENTRATION MIC, Water): 4 µg/mL (≈ 5.83 µM)
- MIC (E. coli GC 2233; GC2233, read-out: MINIMAL INHIBITORY CONCENTRATION MIC, Human Serum): > 64 µg/mL
- MIC (E. coli GC 2233; GC2233, read-out: MINIMAL INHIBITORY CONCENTRATION MIC, Mouse Serum): > 64 µg/mL
- MIC (E. coli GC 2233; GC2233, read-out: MINIMAL INHIBITORY CONCENTRATION MIC, Water): > 64 µg/mL
- MIC (E. coli GC 2203; GC2203, read-out: MINIMAL INHIBITORY CONCENTRATION MIC, Human Serum): > 64 µg/mL
- MIC (E. coli GC 2203; GC2203, read-out: MINIMAL INHIBITORY CONCENTRATION MIC, Mouse Serum): > 64 µg/mL
- MIC (E. coli GC 2203; GC2203, read-out: MINIMAL INHIBITORY CONCENTRATION MIC, Water): > 64 µg/mL
- MIC (E. coli GC 2271; GC2271, read-out: MINIMAL INHIBITORY CONCENTRATION MIC, Human Serum): > 64 µg/mL
- MIC (E. coli GC 2271; GC2271, read-out: MINIMAL INHIBITORY CONCENTRATION MIC, Mouse Serum): > 64 µg/mL
- MIC (E. coli GC 2271; GC2271, read-out: MINIMAL INHIBITORY CONCENTRATION MIC, Water): > 64 µg/mL
- MIC (S. pyogenes GC 4563; GC4563, read-out: MINIMAL INHIBITORY CONCENTRATION MIC, Human Serum): 4 µg/mL (≈ 5.83 µM)
- MIC (S. pyogenes GC 4563; GC4563, read-out: MINIMAL INHIBITORY CONCENTRATION MIC, Mouse Serum): 4 µg/mL (≈ 5.83 µM)
- MIC (S. pyogenes GC 4563; GC4563, read-out: MINIMAL INHIBITORY CONCENTRATION MIC, Water): 4 µg/mL (≈ 5.83 µM)
- MIC (S. aureus GC 2216; GC2216, read-out: MINIMAL INHIBITORY CONCENTRATION MIC, Human Serum): 4 µg/mL (≈ 5.83 µM)
- MIC (S. aureus GC 2216; GC2216, read-out: MINIMAL INHIBITORY CONCENTRATION MIC, Mouse Serum): 2 µg/mL (≈ 2.92 µM)
- MIC (S. aureus GC 2216; GC2216, read-out: MINIMAL INHIBITORY CONCENTRATION MIC, Water): 4 µg/mL (≈ 5.83 µM)
- MIC (E. coli GC 2231; GC2231, read-out: MINIMAL INHIBITORY CONCENTRATION MIC, Human Serum): > 64 µg/mL
- MIC (E. coli GC 2231; GC2231, read-out: MINIMAL INHIBITORY CONCENTRATION MIC, Mouse Serum): > 64 µg/mL
- MIC (E. coli GC 2231; GC2231, read-out: MINIMAL INHIBITORY CONCENTRATION MIC, Water): > 64 µg/mL
- MIC (E. faecalis GC 2265; GC2265, read-out: MINIMAL INHIBITORY CONCENTRATION MIC, Human Serum): 4 µg/mL (≈ 5.83 µM)
- MIC (E. faecalis GC 2265; GC2265, read-out: MINIMAL INHIBITORY CONCENTRATION MIC, Mouse Serum): 4 µg/mL (≈ 5.83 µM)
- MIC (E. faecalis GC 2265; GC2265, read-out: MINIMAL INHIBITORY CONCENTRATION MIC, Water): 4 µg/mL (≈ 5.83 µM)
- MIC (Staph.; MRSA, read-out: Range of MIC, Staph (Mouse Serum)): 2 to 4 µg/mL (≈ 2.92 to 5.83 µM)
- MIC (Staph.; MRSA, read-out: Range of MIC, Staph (Water)): 4 to 8 µg/mL (≈ 5.83 to 11.7 µM)
- MIC (Staph.; read-out: Minimum inhibitory concentration (MIC), Staph (Human Serum)): 4 µg/mL (≈ 5.83 µM)
- MIC (Staph.; read-out: Minimum inhibitory concentration (MIC), Staph (Water)): 4 to 8 µg/mL (≈ 5.83 to 11.7 µM)
- MIC (E. faecium GC 2243; GC2243, read-out: MINIMAL INHIBITORY CONCENTRATION MIC, Human Serum): 4 µg/mL (≈ 5.83 µM)
- MIC (E. faecium GC 2243; GC2243, read-out: MINIMAL INHIBITORY CONCENTRATION MIC, Mouse Serum): 2 µg/mL (≈ 2.92 µM)
- MIC (E. faecium GC 2243; GC2243, read-out: MINIMAL INHIBITORY CONCENTRATION MIC, Water): 4 µg/mL (≈ 5.83 µM)
- MIC (P. aeruginosa GC 2214; GC2214, read-out: MINIMAL INHIBITORY CONCENTRATION MIC, Human Serum): > 64 µg/mL
- MIC (P. aeruginosa GC 2214; GC2214, read-out: MINIMAL INHIBITORY CONCENTRATION MIC, Mouse Serum): > 64 µg/mL
- MIC (P. aeruginosa GC 2214; GC2214, read-out: MINIMAL INHIBITORY CONCENTRATION MIC, Water): > 64 µg/mL
- MIC (E. coli GC 2232; GC2232, read-out: MINIMAL INHIBITORY CONCENTRATION MIC, Human Serum): > 64 µg/mL
- MIC (E. coli GC 2232; GC2232, read-out: MINIMAL INHIBITORY CONCENTRATION MIC, Mouse Serum): > 64 µg/mL
- MIC (E. coli GC 2232; GC2232, read-out: MINIMAL INHIBITORY CONCENTRATION MIC, Water): > 64 µg/mL
- MIC (E. faecium GC 4556; GC4556, read-out: MINIMAL INHIBITORY CONCENTRATION MIC, Human Serum): 4 µg/mL (≈ 5.83 µM)
- MIC (E. faecium GC 4556; GC4556, read-out: MINIMAL INHIBITORY CONCENTRATION MIC, Mouse Serum): 2 µg/mL (≈ 2.92 µM)
- MIC (E. faecium GC 4556; GC4556, read-out: MINIMAL INHIBITORY CONCENTRATION MIC, Water): 4 µg/mL (≈ 5.83 µM)
- MIC (E. coli GC 2270; GC2270, read-out: MINIMAL INHIBITORY CONCENTRATION MIC, Human Serum): > 64 µg/mL
- MIC (E. coli GC 2270; GC2270, read-out: MINIMAL INHIBITORY CONCENTRATION MIC, Mouse Serum): > 64 µg/mL
- MIC (E. coli GC 2270; GC2270, read-out: MINIMAL INHIBITORY CONCENTRATION MIC, Water): > 64 µg/mL
- MIC (E. coli GC 2234; GC2234, read-out: MINIMAL INHIBITORY CONCENTRATION MIC, Human Serum): > 64 µg/mL
- MIC (E. coli GC 2234; GC2234, read-out: MINIMAL INHIBITORY CONCENTRATION MIC, Mouse Serum): > 64 µg/mL
- MIC (E. coli GC 2234; GC2234, read-out: MINIMAL INHIBITORY CONCENTRATION MIC, Water): > 64 µg/mL
- MIC (E. coli GC 2236; GC2236, read-out: MINIMAL INHIBITORY CONCENTRATION MIC, Human Serum): > 64 µg/mL
- MIC (E. coli GC 2236; GC2236, read-out: MINIMAL INHIBITORY CONCENTRATION MIC, Mouse Serum): > 64 µg/mL
- MIC (E. coli GC 2236; GC2236, read-out: MINIMAL INHIBITORY CONCENTRATION MIC, Water): > 64 µg/mL
- MIC (S. aureus GC 6469; GC6469, read-out: MINIMAL INHIBITORY CONCENTRATION MIC, Human Serum): 4 µg/mL (≈ 5.83 µM)
- MIC (S. aureus GC 6469; GC6469, read-out: MINIMAL INHIBITORY CONCENTRATION MIC, Mouse Serum): 2 µg/mL (≈ 2.92 µM)
- MIC (S. aureus GC 6469; GC6469, read-out: MINIMAL INHIBITORY CONCENTRATION MIC, Water): 4 µg/mL (≈ 5.83 µM)
- MIC (E. coli GC 3226; GC3226, read-out: MINIMAL INHIBITORY CONCENTRATION MIC, Human Serum): > 64 µg/mL
- MIC (E. coli GC 3226; GC3226, read-out: MINIMAL INHIBITORY CONCENTRATION MIC, Mouse Serum): > 64 µg/mL
- MIC (E. coli GC 3226; GC3226, read-out: MINIMAL INHIBITORY CONCENTRATION MIC, Water): > 64 µg/mL
- MIC (S. aureus GC 6466; GC6466, read-out: MINIMAL INHIBITORY CONCENTRATION MIC, Human Serum): 4 µg/mL (≈ 5.83 µM)
- MIC (S. aureus GC 6466; GC6466, read-out: MINIMAL INHIBITORY CONCENTRATION MIC, Mouse Serum): 2 µg/mL (≈ 2.92 µM)
- MIC (S. aureus GC 6466; GC6466, read-out: MINIMAL INHIBITORY CONCENTRATION MIC, Water): 4 µg/mL (≈ 5.83 µM)
SMILES: CCCCOC(=O)N(CC(=O)Nc1cc(N(C)C)c2c(c1O)C(=O)C1=C(O)[C@]3(O)C(=O)C(C(N)=O)=C(O)[C@@H](N(C)C)[C@@H]3C[C@@H]1C2)C(C)(C)C [Example 58, butyl 2-{[(5aR,6aS,7S,10aS)-9-(aminocarbonyl)-4,7-bis(dimethylamino)-1,8,10a,11-tetrahydroxy-10,12-dioxo-5,5a,6,6a,7,10,10a,12-octahydrotetracen-2-yl]amino}-2-oxoethyl(tert-butyl)carbamate]
